Tested on: primarily cultured cortical neurons
Experiment: High-content image analysis of the effect of chemotherapy drugs on primarily cultured neurons (neuron number, synaptic puncta number, neurite length)
Conditions: cells cultured for 10 days, drug added for 24 hours, FIG. 7-9; for neurotoxicity (effect on the neuron number, the synaptic puncta number and the neurite length): MAP2/synaptophysin/Hoechst staining
Method: To analyze neural function accurately, MetaXpress 3.1 software (“MetaXpress® Image Acquisition and Analysis Software (Analysis Guide)” was used on the website ftp://ftp.meta.moleculardevices.com/pub/uic/software/MX31R13/HelpDocs/MetaXpress/MetaXpress_3_1_Analysis_Guide.pdf) to design an analysis module. An automatic analysis was performed according to the following optimal indicators (a)˜(c) for image analysis with 32 steps.
The cultured cells including neurons and glial cells were firstly separated according to the area and the fluorescence intensity of the nucleus stained by Hoechst dye together with MAP2 antibody.
After neurons stained with MAP2 were selected, the area of neuronal cell body, the length and the number of processes and branches of the neurites were calculated to verify outgrowth of the neurites.
Numbers of synaptic puncta of the neurons were calculated according to the area of the neurites labeled with fluorescence mentioned above to verify formation of the synaptic puncta of the neurons.
Cerebral cortex was obtained from 0˜1 day old B6 mice pup and meninges were removed. DMEM/F12 medium without serum was used to triturate the cortex tissue. Then, the DMEM/F12 medium without serum was refilled to 5 mL, mixed evenly with 0.5 mL trypsin, and placed at 37° C. for 5 minutes. Then the mixture with 1 mL FBS was filtered through a cell strainer. After a centrifugation at 3,000 rpm for 10 min, the supernatant was removed and precipitated cells were added to a medium required for nerve cell culture. The medium was prepared by adding B-27® Supplement, 0.5 mM L-glutamine, and 0.5% penicillin streptomycin to Neurobasal® A medium.
(2) Black multi-well microplates with clear bottom were used for nerve cell culture. Each well was coated with 70 μL poly-D-lysine or poly-L-lysine. Cells were seeded in a density of 2.8×10^4/well. After cells were cultured for 10 days, chemotherapy drugs listed in the table 1 was respectively added to react with cells for 24 hours. Then cells were fixed with 4% polyformaldehyde for 10 min and washed with PBS twice for 5 min each. Then, each well was added with 1 M glycine reacting for 10 min and wash with PBS twice for 5 min each. After cells were added with 0.05% Triton X-100 reacting for 20 min and washed with PBS twice for 5 min each, cell were blocked with 4% BSA for 1 hour and then stained with primary antibodies including anti-MAP2 antibody (MyBioSource; MBS502140) and anti-synaptophysin antibody (Abcam; ab32127) for 12-16 hours. Next, cells were washed twice with PBST (10 min each) and incubated with fluorescence-conjugated secondary antibodies including Alexa Fluor 488 (Jackson ImmunoResearch; 703-546-155) and Alexa Fluor 647 (molecular probes; A31573) and Hoechst 33258 for 1 hour. At last, cells were washed twice with PBST (10 min each) and added with PBS for further image acquisition and analysis.
(3) Fluorescence microscopy system and method mentioned in the above embodiment were used to capture images at the wavelength of DAPI, FITC, and Cy5 for image analysis of the cultured cells. The images were enlarged 200 times (200×) and saved automatically after the shooting for analysis.

Compound | neurotoxicity (effect on the neuron number, the synaptic puncta number and the neurite length) | neurotoxicity compared with cisplatin (compared with cisplatin)
Nc1ccn([C@@H]2O[C@H](CO)[C@@H](O)C2(F)F)c(=O)n1 [Gemcitabine] | less neurotoxicity | –
N.N.O=C([O-])C1(C(=O)[O-])CCC1.[Pt+2] [carboplatin, Carboplatin] | – | less neurotoxicity
COc1cccc2c1C(=O)c1c(O)c3c(c(O)c1C2=O)C[C@@](O)(C(=O)CO)C[C@@H]3O[C@H]1C[C@H](N)[C@H](O)[C@H](C)O1 [doxorubicin, Doxorubicin] | less neurotoxicity | –
CC(=O)O[C@H]1C(=O)[C@@]2(C)[C@H]([C@H](OC(=O)c3ccccc3)[C@]3(O)C[C@H](OC(=O)[C@H](O)[C@@H](NC(=O)c4ccccc4)c4ccccc4)C(C)=C1C3(C)C)[C@]1(OC(C)=O)CO[C@@H]1C[C@@H]2O [paclitaxel, Paclitaxel] | severe neurotoxicity | –
CC[C@]1(O)C[C@H]2CN(CCc3c([nH]c4ccccc34)[C@@](C(=O)OC)(c3cc4c(cc3OC)N(C=O)[C@H]3[C@@](O)(C(=O)OC)[C@H](OC(C)=O)[C@]5(CC)C=CCN6CC[C@]43[C@@H]65)C2)C1 [vincristine, Vincristine] | severe neurotoxicity | –

— US10520493B2, “Method for assessment of neural function by establishing analysis module” (NATIONAL CHENG KUNG UNIVERSITY, priority 2015, dated 2019)
